The record followed here is US7423181B2, “Aminoalkoxy-functional chalcones” (Lica Pharmaceuticals A/S, priority 2002, dated 2008).

≈ marks a conversion by molar mass, not a printed value.

For series [1], the system named is Bacteroides fragilis, Clostridium perfringens, Clostridium difficele. It counts as cell-based. As to conditions: single concentration of compound (100 μM).
In series [2] the test system is panel of 10 different non-fastidious bacteria. The experiment in a line: Screening against panel of non-fastidious bacteria. To be noted: Gram-positive pathogens.
Series [3] deals with L. major promastigotes. Nature of the series: Leishmania promastigote assay.
The test system of series [4] is Staphylococcus aureus ATCC29213. Nature of the series: MIC determination in broth microdilution assay. As to conditions: A: Staphylococcus aureus ATCC29213. Background: Dilution methods test growth across graded concentrations, often in twofold steps.
Series [5] is described as follows: Determination of metabolic stability (liver microsomes). It is filed as in vitro ADME. As to conditions: rat liver microsomes, 20 μM, 15 min. How it is done: Determination of Metabolic Stability
Incubations were performed with Wistar rat liver microsomes (0.25 mg/ml) in 2% sodium bicarbonate solution. NADP (0.13 mg/ml), glucose-6-phosphate (0.63 mg/ml) and glucose-6-phosphate dehydrogenase (0.38 units/ml) were used as NADPH generation system and UDPGA (0.48 mg/ml) was added to include the phase II reaction, glucuronic acid conjugation, in the assay. After 5 minutes of pre-incubation the reaction was started by addition of the test article to give a final concentration of 20 μM. Samples were incubated for 15 min at 37° C. and the reactions were terminated by addition of equal volumes of acetonitrile. Blank incubations were performed at the same concentration but without addition of microsomes. Both blank and microsome-containing samples were made in replicats of three. Prior to analysis samples were centrifuged for 10 min. at 3500 rpm,HPLC system:
Initial conditions were 40% mobile phase A (acetonitrile) and 60% mobile phase B (10 mM ammonium acetate pH 9.5). During the first 20 minutes, the mobile phase was changed via a linear gradient to 90% A and 10% B. This was followed by a 5 minutes linear gradient to initial conditions, which were maintained for 5 min. The flow rate was 0.20 m)/min and injection volume 10 μl.
A general note: Microsomes from liver hold many membrane-bound enzymes, among them those of drug oxidation.

The subject of series [6] is Eschericia coli ATCC25922. Nature of the series: MIC determination in broth microdilution assay.
Series [7] relates to Staphylococcus aureus ATCC33591(resistant to methicillin). The experiment in a line: MIC determination in broth microdilution assay. As to conditions: B: Staphylococcus aureus ATCC33591(resistant to methicillin).
Series [8] concerns Enterococcus faecium #17501 (vancomycin-resistant clinical isolate). The experiment in a line: MIC determination in broth microdilution assay. To be noted: E: Enterococcus faecium #17501 (vancomycin-resistant).
Series [9] relates to Eschericia coli ESS. Nature of the series: MIC determination in broth microdilution assay.
Series [10] concerns Enterococcus faecalis ATCC29212. The experiment in a line: MIC determination in broth microdilution assay. As to conditions: D: Enterococcus faecalis ATCC29212.
The subject of series [11] is dihydroorotate dehydrogenase (DHODH). Nature of the series: DHODH assay. It is filed as biochemical. To be noted: at 10 μM. How it is done:
100 μl chalcone or 0.1 M Tris-HCl pH 8.0 is added to a well in a 96-wells microtiter plate. Then 50 μl enzyme dilution is added. The microtiter plate is placed in the Powerwavex340 and the enzymatic reactions starts when adding 100 μl assay mixture. The reaction are measured every 20 sec. for 10 min. The samples with chalcones are compared with the samples with 0.1 M Tris-HCl pH 8.0 and the percent inhibition is calculated.
Enzyme dilution: The solution of recombinant purified enzyme is dissolved in 0.1 M Tris-HCl pH 8 to give an initial velocity of 0.04-0.05 ΔA/min.
2,6-dichlorophenolindophenol (DCIP)-stock solution: 40 mg DCIP and 10 ml 99% Ethanol are mixed for 10 min at RT. Then 100 μl 1.0 M Tris-HCl pH 8 and miliQ H2O are added to a final volume of 100 ml. The A600 of the DCIP-stock solution are measured in a microtiter plate on the Powerwavex340 (Bio-Tek instruments,Inc.)
[…]: 25 mM dihydroorotate stock-solution is prepared by first dissolving in the same amount of mol NaOH and then miliQ H2O is added to the final volume.
Assay mix (10 ml solution): 600 μl of DHODH-stock solution and X ml (depending on the A600 value of stock-solution) DCIP to a final A600=2.5 are mixed. Then 0.1 M Tris-HCl pH 8.0 are added to a final volume of 10 ml.
Preparation of compound soluton: A 10 mM stock-solution of compound (e.g. a chalcone derivative) is made in dimethylsulfoxid (DMSO). The compound is then diluted in 0.1 M Tris-HCl pH 8 to the test concentrations. The final DMSO concentration in the sample is 10%

Series [12] concerns Plasmodium berghei K173. As to conditions: multiple oral administrations, NMRI female mice, FIG. 7.

Usually IC50 stands for the concentration at which inhibition is half-maximal. Read a high IC50 as weaker potency. For `COc1ccc(C(=O)/C=C/c2cc(-c3ccccc3OC)ccc2OCCN(C)C)c(F)c1` [Compound C015, (E)-3-[4-(2-Dimethylamino-ethoxy)-2′-methoxy-biphenyl-3-yl]-1-(2-fluoro-4-methoxy-phenyl)-propenone], the “activity against anaerobic bacteria” value in series [1] was “activity against all microorganisms within the test panel”. The “potency against Gram-positive pathogens in comparison with Licochalcone A” value in series [2] is “increased potency”. Further, the IC50 in series [3] (L. major) stood at 100 nM.
As a reminder, the MIC is the least concentration at which growth counts as inhibited. Low values mean inhibition by little substance, high ones a need for much substance. Take `Cc1cc(C)cc(-c2ccc(OCCN(C)C)c(/C=C/C(=O)c3ccccc3NCCN(C)C)c2)c1` [Compound C074, (E)-3-[4-(2-Dimethylamino-ethoxy)-3′,5′-dimethyl-biphenyl-3-yl]-1-[2-(2-dimethylamino-ethylamino)-phenyl]-propenone]: in series [1], the “activity against anaerobic bacteria” value is “activity against all microorganisms within the test panel”. The MIC in [4] came out at 9.4 µM (≈ 4.57 µg/mL); in series [6] (G: Eschericia coli ATCC25922) it was 9.4 µM (≈ 4.57 µg/mL); in [7], 9.4 µM (≈ 4.57 µg/mL); in series [8] it was 9.4 µM (≈ 4.57 µg/mL); in series [9] (H: Eschericia coli ESS), 4.7 µM (≈ 2.28 µg/mL); in series [10], 9.4 µM (≈ 4.57 µg/mL). In addition, in series [5], the “Metabolic turn-over in vitro” value stood at 7%. Also, the “activity against E coli ATCC25922” value in series [6] is on record as “high activity”. Besides, in series [9], the “activity against ESS strain of E.coli” value is recorded as “high activity”.
For the compound `COc1ccc(C(=O)/C=C/c2cc(C(C)(C)C)cc(C(C)(C)C)c2OCCN(C)C)c(F)c1` [Compound C028, (E)-3-[3,5-Di-tert-butyl-2-(2-dimethylamino-ethoxy)-phenyl]-1-(2-fluoro-4-methoxy-phenyl)-propenone], the “Inhibition of DHODH” value in series [11] was found to be 23%. For the same compound, the “activity against anaerobic bacteria” value in [1] is “activity against all microorganisms within the test panel”.
On to `Cc1ccccc1-c1ccc(OCCN(C)C)c(/C=C/C(=O)c2ccccc2CN2CCCC2)c1` [Compound C119, (E)-3-[4-(2-Dimethylamino-ethoxy)-2′-methyl-biphenyl-3-yl]-1-(2-pyrrolidin-1-ylmethyl-phenyl)-propenone], for which, in series [12], the “effect on development of the infection” value is listed as “inhibit the development of the infection”.
For the compound `CN(C)CCCOc1ccc(C(C)(C)C)cc1/C=C/C(=O)c1ccccc1NS(=O)(=O)c1ccccc1` [Compound C042, N-(2-{3-[5-tert-Butyl-2-(3-dimethylamino-propoxy)-phenyl]-(E)-acryloyl}-phenyl)-benzenesulfonamide], the “activity against anaerobic bacteria” value in series [1] is on record as “activity against all microorganisms within the test panel”. Also, the “potency against Gram-positive pathogens in comparison with Licochalcone A” value in series [2] is “increased potency”. Further, the IC50 in [3] (Leishmania major) turned out to be 200 nM.
On to `COc1ccc(C(=O)/C=C/c2cc(-c3cc(C)cc(C)c3)ccc2OCCN(C)C)c(Cl)c1` [Compound C026, (E)-1-(2-Chloro-4-methoxy-phenyl)-3-[4-(2-dimethylamino-ethoxy)-3′,5′-dimethyl-biphenyl-3-yl]-propenone], for which the “Inhibition of DHODH” value in series [11] was determined as 19%. Moreover, the “activity against anaerobic bacteria” value in [1] is given as “activity against all microorganisms within the test panel”.
Take `CN(C)CCOc1ccc(-c2ccccc2Cl)cc1/C=C/C(=O)c1ccccc1CN(C)C` [Compound C128, (E)-3-[2′-Chloro-4-(2-dimethylamino-ethoxy)-biphenyl-3-yl]-1-(2-dimethylaminomethyl-phenyl)-propenone]: the “effect on development of the infection” value in series [12] is “inhibit the development of the infection”.
As to `COc1ccc(C(=O)/C=C/c2cc(-c3ccccc3C)ccc2OCCN(C)C)c(CN(C)C)c1` [Compound C114, (E)-3-[4-(2-Dimethylamino-ethoxy)-2′-methyl-biphenyl-3-yl]-1-(2-imethylaminomethyl-4-methoxy-phenyl)-propenone], in series [12], the “effect on development of the infection” value is “inhibit the development of the infection”.
